Measured values published in patent US6979686B1, “Substituted pyrazoles as p38 kinase inhibitors” (Pharmacia Corporation, priority 2001, dated 2005).

target: T1, human p38 kinase alpha (Homo sapiens, UniProt Q16539); experiment: p38 kinase in vitro assay, phosphorylation of biotinylated PHAS-I with 32P-ATP; assay type: biochemical; settings: @ 1.0 uM
T1 construct: GST (N, cleaved yes); made in house; host or cells: E. coli DH10B
T1 sequence (Q16539 whole entry): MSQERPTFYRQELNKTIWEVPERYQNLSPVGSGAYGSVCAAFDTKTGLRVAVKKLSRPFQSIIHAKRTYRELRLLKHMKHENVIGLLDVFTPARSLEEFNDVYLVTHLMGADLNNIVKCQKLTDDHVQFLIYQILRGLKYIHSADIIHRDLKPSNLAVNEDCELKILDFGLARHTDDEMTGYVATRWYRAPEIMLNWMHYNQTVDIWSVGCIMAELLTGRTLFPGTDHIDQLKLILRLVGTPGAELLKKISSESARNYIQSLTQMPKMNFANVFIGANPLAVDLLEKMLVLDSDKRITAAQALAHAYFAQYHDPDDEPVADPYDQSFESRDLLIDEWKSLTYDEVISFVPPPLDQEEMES

SMILES | P38 alpha kinase % inhib @ conc. (uM) | P38 alpha kinase % inhib @ conc.
CSc1cccc(NC(=O)NCCc2[nH]nc(-c3ccc(F)cc3)c2-c2ccncc2)c1 [Example B-0933] | 47.0% @ | –
CCCCS(=O)(=O)NCCc1[nH]nc(-c2ccc(F)cc2)c1-c1ccncc1 [Example B-1022] | 84.0% @ | –
CCCS(=O)(=O)NCCc1[nH]nc(-c2ccc(F)cc2)c1-c1ccncc1 [Example B-1021] | 82.0% @ | –
CC(C)OC(=O)NCCCc1[nH]nc(-c2ccc(F)cc2)c1-c1ccncc1 [Example B-1234] | – | 89.0% @
O=C(NCCc1[nH]nc(-c2ccc(F)cc2)c1-c1ccncc1)Nc1ccccc1 [Example B-1043] | 64.0% @ | –
O=C(NCCc1[nH]nc(-c2ccc(F)cc2)c1-c1ccncc1)c1ccncc1 [Example B-1006] | 69.0% @ | –
O=S(=O)(NCCCc1[nH]nc(-c2ccc(F)cc2)c1-c1ccncc1)C(F)(F)F [Example B-1196] | 74.0% @ | –
CN(C)C(=O)NCCCc1[nH]nc(-c2ccc(F)cc2)c1-c1ccncc1 [Example B-1212] | – | 90.0% @
O=S(=O)(NCCc1[nH]nc(-c2ccc(F)cc2)c1-c1ccncc1)c1ccc(F)cc1F [Example B-1018] | 88.0% @ | –
O=C(NCCc1[nH]nc(-c2ccc(F)cc2)c1-c1ccncc1)c1ccno1 [Example B-0992] | 77.0% @ | –
CCCOC(=O)NCCCc1[nH]nc(-c2ccc(F)cc2)c1-c1ccncc1 [Example B-1230] | – | 90.0% @

same assay, conditions: @ 1.0 uM; read-out: P38 alpha kinase % inhib @ conc.

SMILES | inhibition at 1 µM
COc1cccc(CC(=O)NCc2[nH]nc(-c3ccc(F)cc3)c2-c2ccncc2)c1 [Example B-0040] | 93%
CCCCCCC(=O)NCc1[nH]nc(-c2ccc(F)cc2)c1-c1ccncc1 [Example B-0015] | 82%

same assay, conditions: @ 10.0 uM

SMILES | P38 alpha kinase IC50, uM or % inhib @ conc. (uM): % inhib | P38 alpha kinase % inhib @ conc.
Cc1c(-c2ccncc2)c(-c2ccc(F)cc2)nn1CC(=O)Nc1ccc(-n2ccc(C(F)(F)F)n2)cc1 [Example B-2455] | 87.0% @ | –
COC(=O)C(Cc1ccc([N+](=O)[O-])cc1)NC(=O)Cn1nc(-c2ccc(F)cc2)c(-c2ccncc2)c1C (stereo not shown) [Example B-2349] | – | 75.0% @
Cc1c(-c2ccncc2)c(-c2ccc(F)cc2)nn1CC(=O)Nc1ccc(OCc2ccccc2)cc1 [Example B-2437] | 82.0% @ | –
Cc1c(-c2ccncc2)c(-c2ccc(F)cc2)nn1CC(=O)Nc1ccc(OCCOc2ccccc2)cc1 [Example B-2448] | 75.0% @ | –

same assay, conditions: Table 8; 1% DMSO; read-out: p38α Kinase Assay IC50

SMILES | IC50
Clc1ccc(-c2[nH]nc(N3CCNCC3)c2-c2ccncc2)cc1 [Example A-328, 1-[5-(4-chlorophenyl)-4-(4-pyridinyl)-1H-pyrazol-3-yl]piperazine] | 12 nM

same assay, conditions: in vitro P38-alpha kinase inhibition; read-out: P38 alpha kinase IC50

SMILES | IC50
CC(NS(=O)(=O)c1cc(Cl)ccc1Cl)c1[nH]nc(-c2ccc(F)cc2)c1-c1ccncc1 (stereo not shown) [Example B-0615] | 80 nM
CC(Oc1ccccc1)C(=O)NC(Cc1ccccc1)c1[nH]nc(-c2ccc(F)cc2)c1-c1ccncc1 (stereo not shown) [Example B-0857] | 6250 nM
COc1ccccc1C(=O)NC(C)c1[nH]nc(-c2ccc(F)cc2)c1-c1ccncc1 (stereo not shown) [Example B-0544] | 1120 nM
Cn1cnc(S(=O)(=O)NCCc2[nH]nc(-c3ccc(F)cc3)c2-c2ccncc2)c1 [Example B-1114] | 69 nM
O=C(NCc1ccccc1)NC(Cc1ccccc1)c1[nH]nc(-c2ccc(F)cc2)c1-c1ccncc1 (stereo not shown) [Example B-0770] | 2300 nM
COc1ccc(S(=O)(=O)NC(Cc2ccccc2)c2[nH]nc(-c3ccc(F)cc3)c2-c2ccncc2)cc1OC (stereo not shown) [Example B-0767] | 80 nM
O=S(=O)(Cc1ccccc1)NC(Cc1ccccc1)c1[nH]nc(-c2ccc(F)cc2)c1-c1ccncc1 (stereo not shown) [Example B-0711] | 1990 nM
O=C(NCCc1[nH]nc(-c2ccc(F)cc2)c1-c1ccncc1)c1c(Cl)cccc1Cl [Example B-1147] | 95 nM
CC(NC(=O)c1c(F)cc(F)cc1F)c1[nH]nc(-c2ccc(F)cc2)c1-c1ccncc1 (stereo not shown) [Example B-0684] | 540 nM
CC(NC(=O)c1c(Cl)cccc1Cl)c1[nH]nc(-c2ccc(F)cc2)c1-c1ccncc1 (stereo not shown) [Example B-0696] | 85 nM
C[C@@H](NS(=O)(=O)c1cccc(Br)c1)c1[nH]nc(-c2ccc(F)cc2)c1-c1ccncc1 [Example B-0455] | < 100 nM
O=C(NCCc1[nH]nc(-c2ccc(F)cc2)c1-c1ccncc1)c1cc2ccccc2s1 [Example B-1124] | 1490 nM
CCCCOc1ccc(S(=O)(=O)NC(C)c2[nH]nc(-c3ccc(F)cc3)c2-c2ccncc2)cc1 (stereo not shown) [Example B-0633] | 600 nM
O=C(NC(Cc1ccccc1)c1[nH]nc(-c2ccc(F)cc2)c1-c1ccncc1)c1ccc(F)cc1 (stereo not shown) [Example B-0832] | 1490 nM
CC(NC(=O)c1ccc(F)c(F)c1)c1[nH]nc(-c2ccc(F)cc2)c1-c1ccncc1 (stereo not shown) [Example B-0678] | 380 nM
CC(C)COC(=O)NC(Cc1ccccc1)c1[nH]nc(-c2ccc(F)cc2)c1-c1ccncc1 (stereo not shown) [Example B-0826] | 1740 nM
CC(NC(=O)Nc1ccccc1O)c1[nH]nc(-c2ccc(F)cc2)c1-c1ccncc1 (stereo not shown) [Example B-0587] | 6840 nM

SMILES | IC50
O=S(=O)(C=Cc1ccccc1)NC(Cc1ccccc1)c1[nH]nc(-c2ccc(F)cc2)c1-c1ccncc1 (stereo not shown) [Example B-0755] | 2300 nM
CC(NS(=O)(=O)C(C)C)c1[nH]nc(-c2ccc(F)cc2)c1-c1ccncc1 (stereo not shown) [Example B-0564] | 820 nM
CC(C)c1cc(C(C)C)c(C(=O)NC(C)c2[nH]nc(-c3ccc(F)cc3)c2-c2ccncc2)c(C(C)C)c1 (stereo not shown) [Example B-0674] | 2810 nM
CC(NC(=O)c1ccc(Cl)cc1)c1[nH]nc(-c2ccc(F)cc2)c1-c1ccncc1 (stereo not shown) [Example B-0670] | 3150 nM
O=C(NCCc1ccccc1)NC(Cc1ccccc1)c1[nH]nc(-c2ccc(F)cc2)c1-c1ccncc1 (stereo not shown) [Example B-0783] | 8000 nM
CC(NC(=O)Nc1ccc(F)cc1)c1[nH]nc(-c2ccc(F)cc2)c1-c1ccncc1 (stereo not shown) [Example B-0583] | 3930 nM
Cc1c(C)c(S(=O)(=O)NC(C)c2[nH]nc(-c3ccc(F)cc3)c2-c2ccncc2)c(C)c2c1OC(C)(C)CC2 (stereo not shown) [Example B-0659] | 2640 nM
CC(C)OC(=O)NC(Cc1ccccc1)c1[nH]nc(-c2ccc(F)cc2)c1-c1ccncc1 (stereo not shown) [Example B-0751] | 1600 nM
CCOC(=O)NC(Cc1ccccc1)c1[nH]nc(-c2ccc(F)cc2)c1-c1ccncc1 (stereo not shown) [Example B-0793] | 300 nM
Cc1noc(C)c1S(=O)(=O)NC(C)c1[nH]nc(-c2ccc(F)cc2)c1-c1ccncc1 (stereo not shown) [Example B-0653] | 2010 nM
CC(NC(=O)c1cc2ccccc2s1)c1[nH]nc(-c2ccc(F)cc2)c1-c1ccncc1 (stereo not shown) [Example B-0673] | 8540 nM
O=C(NCCc1[nH]nc(-c2ccc(F)cc2)c1-c1ccncc1)c1cccc(F)c1F [Example B-1146] | 470 nM
O=S(=O)(NC(Cc1ccccc1)c1[nH]nc(-c2ccc(F)cc2)c1-c1ccncc1)c1ccc(F)cc1 (stereo not shown) [Example B-0707] | 1700 nM
CC(C)=CC(=O)NC(Cc1ccccc1)c1[nH]nc(-c2ccc(F)cc2)c1-c1ccncc1 (stereo not shown) [Example B-0846] | 1800 nM
O=S(=O)(NCCc1[nH]nc(-c2ccc(F)cc2)c1-c1ccncc1)c1cccc(Br)c1 [Example B-1083] | < 100 nM
CC(NS(=O)(=O)c1ccc(CNC(=O)c2ccccc2)s1)c1[nH]nc(-c2ccc(F)cc2)c1-c1ccncc1 (stereo not shown) [Example B-0657] | 170 nM

same assay, conditions: in vitro P38-alpha kinase; read-out: P38 alpha kinase IC50

SMILES | IC50
O=S(=O)(NCCCc1[nH]nc(-c2ccc(F)cc2)c1-c1ccncc1)c1ccc(Br)cc1 [Example B-1237] | 220 nM
Cc1c(-c2ccncc2)c(-c2ccc(F)cc2)nn1CC(=O)NCC(=O)OC(C)(C)C [Example B-2309] | 290 nM
O=S(=O)(NCCCc1[nH]nc(-c2ccc(F)cc2)c1-c1ccncc1)c1ccc(Cl)c(Cl)c1 [Example B-1270] | 470 nM
Cc1ccc(C(=O)N2CCC(c3[nH]nc(-c4ccc(F)cc4)c3-c3ccncc3)CC2)cc1 [Example B-1371] | 60 nM
O=C(NCCCc1[nH]nc(-c2ccc(F)cc2)c1-c1ccncc1)c1cccc(C(F)(F)F)c1 [Example B-1324] | 160 nM
O=C(NCCCc1[nH]nc(-c2ccc(F)cc2)c1-c1ccncc1)c1cccc(Cl)c1 [Example B-1354] | 13 nM
C=CCOC(=O)N1CCC(c2[nH]nc(-c3ccc(F)cc3)c2-c2ccncc2)CC1 [Example B-1426] | 190 nM
O=C(c1ccno1)N1CCC(c2[nH]nc(-c3ccc(F)cc3)c2-c2ccncc2)CC1 [Example B-1367] | < 100 nM
O=S(=O)(c1cccc2cnccc12)N1CCC(c2[nH]nc(-c3ccc(F)cc3)c2-c2ccncc2)CC1 [Example B-1443] | 14 nM
CCOCCCNC(=O)Cn1nc(-c2ccc(F)cc2)c(-c2ccncc2)c1C [Example B-2273] | 1920 nM
Cc1ccc(C(=O)NCCCc2[nH]nc(-c3ccc(F)cc3)c2-c2ccncc2)cc1 [Example B-1323] | 13 nM
O=C(c1ccc(C(F)(F)F)cc1F)N1CCC(c2[nH]nc(-c3ccc(F)cc3)c2-c2ccncc2)CC1 [Example B-1406] | 1390 nM
O=S(=O)(c1cc(Cl)cc(Cl)c1)N1CCC(c2[nH]nc(-c3ccc(F)cc3)c2-c2ccncc2)CC1 [Example B-1453] | 2530 nM
O=C(c1c(F)cccc1C(F)(F)F)N1CCC(c2[nH]nc(-c3ccc(F)cc3)c2-c2ccncc2)CC1 [Example B-1404] | 600 nM
O=C(c1c(F)cccc1F)N1CCC(c2[nH]nc(-c3ccc(F)cc3)c2-c2ccncc2)CC1 [Example B-1401] | 33 nM
O=C(O)c1ccccc1S(=O)(=O)NCCCc1[nH]nc(-c2ccc(F)cc2)c1-c1ccncc1 [Example B-1242] | 80 nM
COc1ccc(C)cc1S(=O)(=O)NCCCc1[nH]nc(-c2ccc(F)cc2)c1-c1ccncc1 [Example B-1275] | < 100 nM
O=S(=O)(NCc1[nH]nc(-c2ccc(F)cc2)c1-c1ccncc1)c1ccc(Br)cc1 [Example B-0224] | < 100 nM
O=C(NCCCc1[nH]nc(-c2ccc(F)cc2)c1-c1ccncc1)c1cccc(F)c1 [Example B-1346] | 43 nM
